Test results taken from patent publication US20130123355A1, “Fatty acids and metal ions compositions and uses thereof” (priority 2011, published 2013).

How the values were obtained:
[1] = system: Patients presenting early symptoms of stroke; test: Stroke Rehabilitation Assessment of Movement (STREAM); type: in vivo, human; details: with standard of care
Protocol: Patients presenting early symptoms of stroke, in addition to being provided standard of care for stroke, are prescribed Mg-DHA or Mg Citrate capsules formulated to provide a daily dose of 150 mg of elemental magnesium or DHA capsules for two weeks when recovery from stroke is assessed.
Patients presenting early symptoms of stroke, in addition to being provided standard of care for stroke, are prescribed Mg-DHA-LysoPC or Mg Citrate capsules prepared and formulated to provide 150 mg of elemental magnesium, or DHA-LysoPC capsules for two weeks when recovery is assessed.
Patients presenting early symptoms of stroke, in addition to being provided standard of care for stroke, are prescribed Mg-EPA or Mg Citrate capsules formulated to provide 150 mg of elemental magnesium, or EPA capsules for two weeks when recovery from stroke is assessed.
Patients presenting early symptoms of stroke, in addition to being provided standard of care for stroke, are prescribed either Zn-DHA or zinc gluconate capsules formulated to provide a daily dosage of 30 mg of elemental Zn, or DHA capsules for two weeks when recovery from stroke is assessed.
Patients presenting early symptoms of stroke, in addition to being provided standard of care for stroke, are prescribed either Zn-DHA-LysoPC or zinc gluconate capsules that provide a daily dosage of 30 mg of elemental Zn, or DHA-LysoPC capsules for two weeks when recovery is assessed.
Patients presenting early symptoms of stroke, in addition to being provided standard of care for stroke, are prescribed either Zn-EPA or zinc gluconate capsules formulated to provide a daily dosage of 30 mg of elemental Zn, or EPA capsules for two weeks when recovery from stroke is assessed.

[2] = system: Patients presenting symptoms of depression; test: Hamilton Depression Rating scale and Beck Depression Inventory in depression; type: in vivo, human; details: with standard of care
Protocol: Patients presenting symptoms of depression, in addition to being provided standard of care for depression, are prescribed Mg-DHA or Mg Citrate capsules formulated to provide 150 mg of elemental magnesium, or DHA capsules for two weeks when recovery from depression is assessed.
Patients presenting symptoms of depression, in addition to being provided standard of care for depression, are prescribed Mg-DHA-LysoPC or Mg Citrate capsules formulated to provide 150 mg of elemental magnesium, or DHA-LysoPC capsules for two weeks when recovery from depression is assessed.
Patients presenting symptoms of depression, in addition to being provided standard of care for depression, are prescribed Mg-EPA or Mg Citrate capsules formulated to provide 150 mg of elemental magnesium, or EPA capsules for two weeks when recovery from depression is assessed.
(§1) Patients presenting symptoms of depression, in addition to being provided standard of care for depression, are prescribed Zn-DHA or zinc gluconate capsules formulated to provide a daily dosage of 30 mg of elemental zinc, or DHA capsules for two weeks when recovery from depression is assessed.
as §1, with “Zn-DHA-LysoPC” for “Zn-DHA”, “DHA-LysoPC” for “DHA”
Patients presenting symptoms of depression, in addition to being provided standard of care for depression, are prescribed Zn-EPA or zinc gluconate capsules that provide a daily dosage of 30 mg of elemental Zn, or EPA capsules for two weeks when recovery from depression is assessed.

rats = test: tail flick test; type: in vivo; details: diet
Protocol: On Zn-EPA or zinc gluconate supplemented diet, rats consume about 1 mg/kg body weight/day of elemental zinc, on a feeding schedule so as to maintain 85% of its free-feeding weight.

[3] = 150 mg elemental magnesium daily for two weeks
[4] = 150 mg elemental magnesium for two weeks
[5] = about 50 mg/Kg/day elemental Mg, days 0, 7, 14, 21, compared with Mg Citrate or the fatty acid alone
[6] = 30 mg elemental Zn daily for two weeks, compared with the fatty acid alone or zinc gluconate
[7] = 30 mg elemental zinc daily for two weeks, compared with the fatty acid alone or zinc gluconate
[8] = about 1 mg/kg body weight/day elemental zinc, days 0, 7, 14, 21, compared with zinc gluconate or the fatty acid alone

SMILES	STREAM scores, recovery from stroke [1, 3]	Hamilton Depression Rating scale and Beck Depression Inventory scores [2, 4]	latency of tail flick reflex (rats; [5])	STREAM scores, recovery from stroke [1, 6]	Hamilton Depression Rating scale and Beck Depression Inventory scores [2, 7]	latency of tail flick reflex (rats; [8])
CC/C=C\C/C=C\C/C=C\C/C=C\C/C=C\C/C=C\CCC(=O)[O-].CC/C=C\C/C=C\C/C=C\C/C=C\C/C=C\C/C=C\CCC(=O)[O-].[Mg+2] [Mg-DHA]	statistically significant improvement	statistically significant improvement	Statistically significant increased latency			
CC/C=C\C/C=C\C/C=C\C/C=C\C/C=C\CCCC(=O)[O-].CC/C=C\C/C=C\C/C=C\C/C=C\C/C=C\CCCC(=O)[O-].[Mg+2] [Mg-EPA]	statistically significant improvement	statistically significant improvement	Statistically significant increased latency			
CC/C=C\C/C=C\C/C=C\C/C=C\C/C=C\C/C=C\CCC(=O)[O-].CC/C=C\C/C=C\C/C=C\C/C=C\C/C=C\C/C=C\CCC(=O)[O-].[Zn+2] [Zn-DHA]				statistically significant improvement	statistically significant improvement	Statistically significant increased latency
CC/C=C\C/C=C\C/C=C\C/C=C\C/C=C\CCCC(=O)[O-].CC/C=C\C/C=C\C/C=C\C/C=C\C/C=C\CCCC(=O)[O-].[Zn+2] [Zn-EPA]				statistically significant improvement	statistically significant improvement	Statistically significant increased latency
